Source: US20240173389A1, “Compositions and Methods For Reducing Immune Intolerance” (LAPIX THERAPEUTICS, INC., priority 2021, published 2024)
“Also recorded” adds a separate entry of the source.

What was measured:
[1] = tested on: RAW264.7 mouse monocyte macrophage cells; test: SAR screen in RAW 264.7 cells with FVIII antigen, TGF-β ELISA (Example 5); assay type: cell-based; settings: free compounds dosed in mM range
Source text: (§1) RAW264.7 mouse monocyte macrophage cells were exposed to an increasing concentration of selected compounds in the presence of human plasma-derived FVIII as a model antigen protein. TNF-α and TGF-β production were monitored.
All molecules were formulated in RPMI media in aseptic conditions. The pH was adjusted to approximately 7.5 before dosing cells. 1,2-dimyristoyl-sn-glycero-3-phosphocholine (DM PC):PS liposomes were made at 70:30 molar ratio to make “PS” liposomes. The remaining liposomes were made by hydrating a DMPC lipid layer in PBS buffer containing a test compound to give a final molar ratio of 70:30 of DMPC:test compound.
(§2) RAW 264.7 cells were prepared, cultured, and dosed. Cells were seeded at 4×10^5 cells/well. OPLS, OPLT and L-homocysteic acid (LHA) were dosed at 100, 85, 70, 60, 50, 30, 10, 3, 1, 0.3, 0.1, 0.03 and 0.01 mM, or at 100, 85, 70, 60, 50, 30, 10, 3 and 1 mM, as indicated. O-Benzyl-L-serine (OBLS), S-phenyl-L-cysteine (SPLC), S-benzyl-L-cysteine (SBLC) and OBLT were dosed at 100, 85, 70, 60, 50, 30, 10, 3, 1, 0.3, 0.1, 0.03, 0.01, 0.003 and 0.001 μM. Finally, 100 μl of 40 μg/ml of FVIII as a sample antigen was added to each cell. LPS and free protein were used as positive and baseline controls, respectively. TNF-α and TGF-β ELISA were conducted as per the manufacturer's instructions (R & D Systems).

[2] = tested on: RAW264.7 mouse monocyte macrophage cells; test: SAR screen in RAW 264.7 cells with FVIII antigen, TNF-α ELISA (Example 5); assay type: cell-based; settings: free compounds dosed in mM range, FVIII antigen
Source text: as §1
All molecules were formulated in RPMI media in aseptic conditions. The pH was adjusted to approximately 7.5 before dosing cells. 1,2-dimyristoyl-sn-glycero-3-phosphocholine (DM PC):PS liposomes were made at 70:30 molar ratio to make “PS” liposomes.
as §2

FoxP3+/CD4+ T-cell = test: Ex vivo flow cytometry of splenocytes for FoxP3+/CD4+ T-cells after AAV9 treatment period (Example 3); assay type: in vivo, mice; settings: SC QW 4 weeks with AAV9; OPLT 5 mg, liposomal OBLT 50 μg OBLT; one animal per group
Protocol: (§3) OPLT and OBLT were dissolved in sterile PBS, and pH was adjusted to approximately 7.5. Liposomal OBLT was prepared using […]. AAV9 in PBS was used as a control. For treatment, AAV9 was co-mixed with OPLT or liposomal OBLT before administration, as per group assignment for each animal. AAV9 was administered with 5 mg of OPLT SC QW, 50 μg OBLT SC QW as liposomal OBLT or 7.2 μg OBLT PO QD as liposomal OBLT. For all SC groups, AAV9 was dosed at 10^6 particles/injection. For PO groups, AAV9 was dosed at 1.43×10^5 particles/injection.
(§4) Animals were injected with AAV9, AAV9+OPLT, or AAV9+liposomal OBLT SC QW for 4 weeks. Blood samples were collected for anti-AAV9 titer analysis after a one-week washout period from the last dose. For oral tolerance, animals were administered AAV9 or AAV9+liposomal OBLT PO, QD for 4 weeks. AAV9 was also administered SC QW to both groups during the treatment period. Blood samples were collected for anti-AAV9 titer analysis after a one-week washout period from the last dose.
One week after the last dose, one animal from each group was selected at random for ex-vivo analysis of the T-cell population. Spleens were collected and a single-cell suspension was prepared for cellular phenotyping by flow cytometry. Cells were stained and gated for CD4+ T-cells. FoxP3 expression level was evaluated for each animal.

Splenocytes = test: Splenocyte culture with anti-CD3/anti-CD28 without antigen, Foxp3+/CD4+ by flow cytometry (Example 4); assay type: cell-based; settings: 100 μM, three days, anti-CD3/anti-CD28, absence of any antigen
Protocol: Splenocytes were cultured for three days in presence of anti-CD3/anti-CD28 in presence of 100 μM PS or 100 μM OPLT in absence of any antigen.

TLR4 = test: TNF-α production by splenocytes in response to TLR4 ligand LPS; assay type: cell-based, C57BL/6 mice; settings: for TNF-α mean: 48 hours, OPLT 1.85 μg/ml, dexamethasone 100 μg/ml, rapamycin 625 μg/ml
Protocol: (§5) OPLT was dissolved in sterile PBS at 100 μM, and pH was adjusted to approximately 7.5. Splenocytes from naïve C57BL/6 mice were stained with CFSE, prepared, cultured, and dosed. Cells were seeded at 2×10^5 cells/well.
(§6) To evaluate the effects of OPLT on cytokine production by splenocytes in response to different TLR ligands, splenocytes were incubated with one of the following TLR ligands in triplicate: PGN, LPS, ODN CPG, dsRNA, or ssRNA, as per group assignment. Cells were then treated as follows: • Control: No treatment; • OPLT: Cells were dosed with 1.85 μg/ml; • Dexamethasone: Cells were dosed with 100 μg/ml; • Rapamycin: Cells were dosed with 625 μg/ml. Cells were incubated for 48 hours before collecting the supernatant for TNF-α analysis.
(§7) The supernatant was collected for TNF-α analysis by ELISA.

TLR3 = test: TNF-α production by splenocytes in response to TLR3 ligand poly(I:C); assay type: cell-based, C57BL/6 mice; settings: for TNF-α mean: 48 hours, OPLT 1.85 μg/ml, dexamethasone 100 μg/ml, rapamycin 625 μg/ml
Protocol: as §5, §6, §7

TLR2 = test: TNF-α production by splenocytes in response to TLR2 ligand PGN; assay type: cell-based, C57BL/6 mice; settings: for TNF-α mean: 48 hours, OPLT 1.85 μg/ml, dexamethasone 100 μg/ml, rapamycin 625 μg/ml
Protocol: as §5, §6, §7

B57BL6 Mice = test: Anti-AAV9 titer analysis in mice given AAV9 with OPLT or liposomal OBLT (Example 3); assay type: in vivo
Protocol: as §3, §4

TLR9 = test: TNF-α production by splenocytes in response to TLR9 ligand ODN CpG; assay type: cell-based, C57BL/6 mice; settings: for TNF-α mean: 48 hours, OPLT 1.85 μg/ml, dexamethasone 100 μg/ml, rapamycin 625 μg/ml
Protocol: as §5, §6, §7

N[C@@H](Cc1ccc(OP(=O)(O)O)cc1)C(=O)O [OPLT, O-phospho-L-tyrosine]
TGF-β production versus OPLS [1]: mimicked that of OPLS; also recorded: more potent inducers of TGF-β
TNF-α production (suppression) versus OPLS [2]: suppressed TNF-α production at a lower dose than OPLS; also recorded: more potent inhibitors of TNF-α
increase in FoxP3+/CD4+ compared to the untreated group (FoxP3+/CD4+ T-cell): 122%
increase in Foxp3+/CD4+ compared to control (Splenocytes): 118%
TNF-α mean (TLR4; LPS 0 ng/ml): 0 pg/mL
TNF-α mean (TLR4; LPS 1 ng/ml, CTL 143): 116 pg/mL
TNF-α mean (TLR4; LPS 10 ng/ml, CTL 840): 676 pg/mL
TNF-α mean (TLR4; LPS 100 ng/ml, CTL 1091): 838 pg/mL
effect on splenocytes' TNF-α response to the TLR4 ligand LPS (in words) (TLR4; compared to control at all doses, 10 μM OPLT): did not abrogate splenocytes' response to LPS
TNF-α mean (TLR3; PolyI:C 0 ng/ml): 0 pg/mL
TNF-α mean (TLR3; PolyI:C 1 ng/ml, CTL 0): 0 pg/mL
TNF-α mean (TLR3; PolyI:C 10 ng/ml, CTL 109): 0 pg/mL
TNF-α mean (TLR3; PolyI:C 100 ng/ml, CTL 162): 0 pg/mL
effect on splenocytes' TNF-α response to the TLR3 ligand poly(I:C) (in words) (TLR3; compared to control at all doses): abrogated splenocytes' response to the TLR3 ligand poly(I:C)
TNF-α mean (TLR2; PGN 0 ng/ml): 0 pg/mL
TNF-α mean (TLR2; PGN 1 ng/ml, CTL 730): 445 pg/mL
TNF-α mean (TLR2; PGN 10 ng/ml, CTL 725): 613 pg/mL
TNF-α mean (TLR2; PGN 100 ng/ml, CTL 834): 827 pg/mL
effect on splenocytes' TNF-α response to the TLR2 ligand PGN (in words) (TLR2; PGN 1, 10, 100 ng/ml, compared to control): statistically significant reduction in TNF-α in the low PGN dose group (1 ng/ml), but not the mid or high PGN dose group
anti-AAV9 immune response/titers versus AAV9 alone control (B57BL6 Mice; SC QW 4 weeks): did not elicit an immune response
animals that developed measurable anti-AAV9 antibodies (B57BL6 Mice; SC QW 4 weeks with AAV9, after one-week washout, AAV9 SC control 8/8): 0/8
TNF-α mean (TLR9; ODN CpG 0 ng/ml): 0 pg/mL
TNF-α mean (TLR9; ODN CpG 1 ng/ml, CTL 0): 0 pg/mL
TNF-α mean (TLR9; ODN CpG 10 ng/ml, CTL 338): 0 pg/mL
TNF-α mean (TLR9; ODN CpG 100 ng/ml, CTL 1220): 1178 pg/mL
effect on splenocytes' TNF-α response to the TLR9 ligand ODN CpG (in words) (TLR9; high dose of ODN CpG): did not
effect on splenocytes' TNF-α response to the TLR9 ligand ODN CpG (in words) (TLR9; mid-dose of ODN CpG, statistically significant): reduced splenocytes' response to mid-dose of the TLR9 ligand ODN CpG
